How the values were obtained:
Assay type in all cases: cell-based
[1] = tested on: PGE2 secretion by mouse bladder cells; assay: PGE2 ELISA of mouse bladder cell culture supernatants; settings: for effect on the effect of LPS on PGE2 secretion: LPS (1 μg/ml), analgesic 5 or 50 μM
Protocol: Bladder cells were removed from euthanized animals C57BL/6 mice (8-12 weeks old) and cells were isolated by enzymatic digestion followed by purification on a Percoll gradient. […] Bladder slurries were enzymatically digested for 30 minutes at 37° C. Undigested fragments were further dispersed through a cell-trainer. The cell suspension was pelleted and added to a discontinue 20%, 40% and 75% Percoll gradient for purification on mononuclear cells. Each experiment used 50-60 bladders. […] Cells were cultured at 37° C. in a 5% CO2 atmosphere. Bladder cells were treated with analgesic solutions (50 well) either alone or together with carbachol (10-Molar, 50 μl/well), as an example of non-inflammatory stimuli, or lipopolysaccharide (LPS) of Salmonella typhimurium (1 μg/ml, 50 μl/well), as an example of […] stimuli. […] Cells were fixed, permeabilized and blocked for detection of Cyclooxygenase-2 (COX2) using a fluorogenic substrate. In selected experiment cells were stimulated 12 hours in vitro for analysis of COX2 responses […] More specifically, culture supernatants or PGE2 standards were added to the wells of a 96-well polystyrene microplate coated with a goat anti-mouse polyclonal antibody. After one hour incubation on a microplate shaker, an HRP-conjugated PGE2 was added and plates incubated for an additional two hours at room temperature. The plates were then washed and HRP substrate solution added to each well. The color was allowed to develop for 30 min and the reaction stopped by addition sulfuric acid before reading the plate at 450 nm with wavelength correction at 570 nm. Results are expressed as mean pg/ml of PGE2.

[2] = tested on: PGE2 secretion by normal human bladder smooth muscle cells; assay: PGE2 ELISA of normal human bladder smooth muscle cell supernatants; settings: for effect on the LPS-induced PGE2 responses: analgesic at either 5 μM or 50 μM
Protocol: Prostaglandin E2 responses were analyzed by a sequential competitive ELISA (R&D Systems). More specifically, culture supernatants or PGE2 standards were added to the wells of a 96-well polystyrene microplate coated with a goat anti-mouse polyclonal antibody. After one hour incubation on a microplate shaker, an HRP-conjugated PGE2 was added and plates incubated for an additional two hours at room temperature. The plates were then washed and HRP substrate solution added to each well. The color was allowed to develop for 30 min and the reaction stopped by addition sulfuric acid before reading the plate at 450 nm with wavelength correction at 570 nm. Results are expressed as mean pg/ml of PGE2.
(§1) Normal human bladder smooth muscle cells were isolated by enzymatic digestion from macroscopically normal pieces of human bladder. Cells were expended in vitro by culture at 37° C. in a 5% CO2 atmosphere in RPMI 1640 supplemented with 10% fetal bovine serum, 15 mM HEPES, 2 mM L-glutamine, 100 U/ml penicillin, and […] of streptomycin and passage once a week by treatment with trypsin to detach cells followed by reseeding in a new culture flask. The first week of culture, the culture medium was supplemented with 0.5 ng/ml epidermal growth factor, 2 ng/ml fibroblast growth factor, and 5 μg/ml insulin.
[…] When no other effectors were added to the cells, 50 μl of RPMI 1640 without fetal bovine serum were added to the wells to adjust the final volume to 200 μl.
(§2) After 24 hours of culture, 150 μl of culture supernatants were collected, spun down for 2 min at 8,000 rpm at 4° C. to remove cells and debris and stored at −70° C. for analysis of Prostaglandin E2 (PGE2) responses by ELISA. Cells were fixed, permeabilized and blocked for detection of COX2 using a fluorogenic substrate. In selected experiment cells were stimulated 12 hours in vitro for analysis of COX2, PGE2 and cytokine responses.
(§3) COX2 and PGE2 responses were analyzed as described in Example 3. Cytokine responses were analyzed as described in Example 2.

[3] = tested on: TNFα secretion by normal human bladder smooth muscle cells; assay: TNFα ELISA of normal human bladder smooth muscle cell supernatants; settings: for TNFα (pg/ml) Subject 2 / TNFα (pg/ml) Subject 1: Carbachol 10^−3 M plus analgesic 50 μM; for TNFα (pg/ml) Subject 2: carbachol alone 286, unstimulated <5; for TNFα (pg/ml) Subject 1: carbachol alone 350, unstimulated <5, mean of duplicates; for effect on the effect of carbachol and LPS on TNFα responses: LPS-induced responses: analgesic at either 5 μM or 50 μM
Protocol: (§4) Culture supernatants were subjected to cytokine-specific ELISA to determine IL-1β, IL-6 and TNF-α responses in cultures of macrophages treated with analgesic, LPS alone or a combination of LPS and analgesic. The assays were performed on Nunc MaxiSorp Immunoplates (Nunc) coated overnight with 100 μl of anti-mouse IL-6, TNF-α mAbs (BD Biosciences) or IL-1β mAb (R&D Systems) in 0.1 M sodium bicarbonate buffer (pH 9.5). After two washes with PBS (200 μl per well), 200 μl of PBS 3% BSA were added in each well (blocking) and the plates incubated for 2 hours at room temperature. Plates were washed again two times by addition of 200 μl per well, 100 μl of cytokine standards and serial dilutions of culture supernatants were added in duplicate and the plates were incubated overnight at 4° C. Finally, the plates were washed twice and incubated with 100 μl of secondary biotinylated anti-mouse IL-6, TNFα mAbs (BD Biosciences) or IL-1β (R&D Systems) followed by peroxidase-labelled goat anti-biotin mAb (Vector Laboratories). The colorimetric reaction was developed by the addition of 2,2′-azino-bis(3)-ethylbenzylthiazoline-6-sulfonic acid (ABTS) substrate and H2O2 (Sigma) and the absorbance measured at 415 nm with a Victor® V multilabel plate reader (PerkinElmer).
as §1
(§5) Bladder smooth muscle cells trypsinized and seeded in microculture plates at a cell density of 3×10^4 cells per well in 100 μl were treated with analgesic solutions (50 μl/well) either alone or together carbachol (10-Molar, 50 μl/well), as an example of non-inflammatory stimuli, or lipopolysaccharide (LPS) of Salmonella typhimurium (1 μg/ml, 50 μl/well), as an example of […] stimuli. When no other effectors were added to the cells, 50 μl of RPMI 1640 without fetal bovine serum were added to the wells to adjust the final volume to 200 μl.
as §2, §3

[4] = tested on: IL-6 secretion by normal human bladder smooth muscle cells; assay: IL-6 ELISA of normal human bladder smooth muscle cell supernatants; settings: for IL-6 (pg/ml) Subject 1 / IL-6 (pg/ml) Subject 2: Carbachol 10^−3 M plus analgesic 50 μM; for IL-6 (pg/ml) Subject 1: carbachol alone 232, unstimulated <5, mean of duplicates; for IL-6 (pg/ml) Subject 2: carbachol alone 278, unstimulated <5; for effect on the effect of carbachol and LPS on IL-6 responses: LPS-induced responses: analgesic at either 5 μM or 50 μM
Protocol: as §4, §1, §5, §2, §3

[5] = LPS (1 μg/ml) plus analgesic 5 μM, LPS alone 925 ± 55, unstimulated <20.5
[6] = LPS (1 μg/ml) plus analgesic 50 μM, LPS alone 925 ± 55, unstimulated <20.5
[7] = Carbachol 10^−3 M plus analgesic 50 μM, carbachol alone 104, unstimulated <20.5
[8] = Carbachol 10^−3 M plus analgesic 50 μM, carbachol alone 129, unstimulated <20.5, mean of duplicates
[9] = LPS (10 μg/ml) plus analgesic 5 μM, LPS alone 998
[10] = LPS (10 μg/ml) plus analgesic 5 μM, LPS alone 1125, mean of duplicates
[11] = LPS (10 μg/ml) plus analgesic 50 μM, LPS alone 998
[12] = LPS (10 μg/ml) plus analgesic 50 μM, LPS alone 1125, mean of duplicates
[13] = stimulus alone, no analgesic (Carbachol 10^−3 M; LPS 10 μg/ml), unstimulated <20.5

SMILES	PGE2 levels [1, 5]	PGE2 levels [1, 6]	effect on the effect of LPS on PGE2 secretion [1]	PGE2 levels (pg/ml) Subject 2 [2, 7]	PGE2 levels (pg/ml) Subject 1 [2, 8]	PGE2 levels (pg/ml) Subject 2 [2, 9]	PGE2 levels (pg/ml) Subject 1 [2, 10]	PGE2 levels (pg/ml) Subject 2 [2, 11]	PGE2 levels (pg/ml) Subject 1 [2, 12]	effect on the LPS-induced PGE2 responses [2]	TNFα (pg/ml) Subject 2 [3]	TNFα (pg/ml) Subject 1 [3]	effect on the effect of carbachol and LPS on TNFα responses [3]	IL-6 (pg/ml) Subject 1 [4]	IL-6 (pg/ml) Subject 2 [4]	effect on the effect of carbachol and LPS on IL-6 responses [4]	other results
CC(=O)Nc1ccc(O)cc1 [Acetaminophen, N-acetyl-para-aminophenol]	619 ± 32 pg/mL	600 ± 45 pg/mL	suppressed	62 pg/mL	76 pg/mL	542 pg/mL	817 pg/mL	540 pg/mL	803 pg/mL	suppress	164 pg/mL	138 pg/mL	suppress	119 pg/mL	135 pg/mL	suppress	
CC(=O)Oc1ccccc1C(=O)O [Aspirin, Acetylsalicylic acid]	588 ± 21 pg/mL	571 ± 53 pg/mL	suppressed	59 pg/mL	89 pg/mL	598 pg/mL	838 pg/mL	534 pg/mL	812 pg/mL	suppress	142 pg/mL	110 pg/mL	suppress	95 pg/mL	146 pg/mL	suppress	
C[N+](C)(C)CCOC(N)=O [Carbachol, carbachol]																	PGE2 levels ([1]; stimulus alone, no analgesic (LPS 1 μg/ml, Carbachol (mM)), unstimulated <20.5): <20.5 pg/mL; PGE2 levels (pg/ml) ([1]; stimulus alone, no analgesic (LPS 1 μg/ml, Carbachol (mM)), unstimulated <20.5, listed as carbachol): not detected; PGE2 production in response to stimulus alone ([2]; no analgesic): induced production of PGE2; PGE2 levels (pg/ml) Subject 1 [2, 13]: 129 pg/mL; PGE2 levels (pg/ml) Subject 2 [2, 13]: 104 pg/mL; TNFα responses to stimulus alone ([3]; no analgesic): induced low, but significant TNFα and IL-6 responses; IL-6 responses to stimulus alone ([4]; no analgesic): induced low, but significant TNFα and IL-6 responses
CC(C)Cc1ccc(C(C)C(=O)O)cc1 (centres unmarked) [Ibuprofen, ibuprofen]	593 ± 46 pg/mL	568 ± 32 pg/mL	suppressed	73 pg/mL	84 pg/mL	527 pg/mL	824 pg/mL	501 pg/mL	821 pg/mL	suppress	121 pg/mL	146 pg/mL	suppress	107 pg/mL	118 pg/mL	suppress	
COc1ccc2cc([C@H](C)C(=O)O)ccc2c1 [Naproxen]	597 ± 19 pg/mL	588 ± 37 pg/mL	suppressed	66 pg/mL	77 pg/mL	506 pg/mL	859 pg/mL	523 pg/mL	819 pg/mL	suppress	137 pg/mL	129 pg/mL	suppress	114 pg/mL	127 pg/mL	suppress	

— US10596127B2, “Composition for reducing the frequency of urination, method of making and use thereof” (WELLESLEY PHARMACEUTICALS, LLC, priority 2013, dated 2020)
